# Reference: US10106556B2, “Heterocyclic compound” (TAKEDA PHARMACEUTICAL COMPANY LIMITED, priority 2015, dated 2018)
# Target: T1, His-hMAGL (recombinant polyhistidine tagged human MAGL protein) (Homo sapiens, UniProt Q99685)
# T1 construct: made in house; host or cells: E. coli BL21(DE3)
# T1 sequence (Q99685 1-303): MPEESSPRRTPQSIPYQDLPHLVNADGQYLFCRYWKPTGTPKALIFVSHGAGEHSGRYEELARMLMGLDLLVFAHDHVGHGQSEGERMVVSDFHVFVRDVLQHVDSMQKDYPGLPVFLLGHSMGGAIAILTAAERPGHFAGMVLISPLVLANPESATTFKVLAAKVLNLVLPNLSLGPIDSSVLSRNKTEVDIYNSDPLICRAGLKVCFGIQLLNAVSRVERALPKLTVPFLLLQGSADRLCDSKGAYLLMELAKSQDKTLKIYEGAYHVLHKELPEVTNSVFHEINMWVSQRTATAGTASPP
# Test: Measurement of MAGL inhibitory activity (arachidonic acid production from 2-arachidonylglycerol, RapidFire-mass spectrometry)
# Assay type: biochemical
# Conditions: MAGL inhibitory rate at 10 μM test compound; 60 min preincubation with His-hMAGL, 2-arachidonylglycerol substrate, 10 min reaction at room temperature
# Procedure: Furthermore, acetonitrile (50 μL) containing 3 μM arachidonic acid-d8 (Cayman Chemical Company) was added and the mixture was stirred.
# The amount of arachidonic acid in the obtained enzyme reaction mixture was calculated by measuring by RapidFire-mass spectrometry and correcting by the amount of arachidonic acid-d8. High Throughput online solid phase extraction was performed using RapidFire 300™ system (Agilent Technologies, Inc.). Samples were loaded on SPE C4 cartridge (Agilent Technologies, Inc.) and desalted with 0.2 (v/v) % acetic acid (Wako Pure Chemical Industries, Ltd.) in ultrapure water/acetonitrile (70/30, v/v) at a flow rate of 1.5 mL/min, eluted at a flow rate of 0.5 mL/min with 0.2 (v/v) % acetic acid dissolved in acetonitrile/ultrapure water (90/10, v/v), and injected into the mass spectrometry part. The injection needle was washed with ultrapure water (500 millisecond) and acetonitrile (500 millisecond) to minimize carry-over. […] The RapidFire300 system was controlled by RapidFire UI software version 3.6 (Agilent Technologies, Inc.).
# The mass spectrometry of the resultant product was performed using API4000™ triple quadrupole mass spectrometer (AB SCIEX) equipped with an electrospray ion sauce (TurboIon Spray™) in a negative selected reaction monitoring (SRM) mode. The conditions of SRM are shown below. The parameters of the instrument were optimized as follows: capillary temperature 600° C., ion spray voltage −4.5 kV, collision gas 8, curtain gas 15 psi, ion source gas 1 60 psi, ion source gas 2 60 psi. The mass spectrometer was controlled by Analyst™ software version 1.5.1 (AB SCIEX). The peak area integration was analyzed using RapidFire integrator software version 3.6 (Agilent Technologies, Inc.).
# MAGL inhibitory rate (%) was calculated according to the following calculation formula. (1−(arachidonic acid production amount of test compound addition group−arachidonic acid production amount of enzyme−free group)÷(arachidonic acid production amount of test compound-free group−arachidonic acid production amount of enzyme-free group))×100
row,SMILES,inhibition at 10 µM [%]
1,"O=C1COc2cc(F)c(C(=O)N3CC(COc4ccc(F)cc4Cl)C3)cc2N1 [Example 77, 6-((3-((2-chloro-4-fluorophenoxy)methyl)azetidin-1-yl)carbonyl)-7-fluoro-2H-1,4-benzoxazin-3(4H)-one]",105
2,"O=C1COc2ccc(C(=O)N3CC(COc4ccc(F)cc4Cl)C3)cc2N1 [Example 78, 6-((3-((2-chloro-4-fluorophenoxy)methyl)azetidin-1-yl)carbonyl)-2H-1,4-benzoxazin-3(4H)-one]",100
3,"O=C(c1ccc2ccc(=O)[nH]c2c1)N1CCC(COc2ccc(F)cc2Cl)CC1 [Example 79, 7-((4-((2-chloro-4-fluorophenoxy)methyl)piperidin-1-yl)carbonyl)quinolin-2(1H)-one]",103
4,"O=C1COc2cc(F)c(C(=O)N3CCC(COC4CCCCC4)CC3)cc2N1 [Example 80, 6-((4-((cyclohexyloxy)methyl)piperidin-1-yl)carbonyl)-7-fluoro-2H-1,4-benzoxazin-3(4H)-one]",100
5,"N#CC1(COc2ccc(F)cc2Cl)CCN(C(=O)c2cc3c(cc2F)OCC(=O)N3)CC1 [Example 81, 4-((2-chloro-4-fluorophenoxy)methyl)-1-((7-fluoro-3-oxo-3,4-dihydro-2H-1,4-benzoxazin-6-yl)carbonyl)piperidine-4-carbonitrile]",99
6,"C=C(C)c1ccc(OCC2CCN(C(=O)c3cc4c(cc3F)OCC(=O)N4)CC2)c(Cl)c1 [Example 82, 6-((4-((2-chloro-4-(prop-1-en-2-yl)phenoxy)methyl)piperidin-1-yl)carbonyl)-7-fluoro-2H-1,4-benzoxazin-3(4H)-one]",101
7,"O=C1COc2cc(F)c(C(=O)N3CCC(COC4CCOCC4)CC3)cc2N1 [Example 83, 7-fluoro-6-((4-((tetrahydro-2H-pyran-4-yloxy)methyl)piperidin-1-yl)carbonyl)-2H-1,4-benzoxazin-3(4H)-one]",86
8,"COC(=O)c1ccc(OCC2CCN(C(=O)c3cc4c(cc3F)OCC(=O)N4)CC2)c(Cl)c1 [Example 84, methyl-3-chloro-4-((1-((7-fluoro-3-oxo-3,4-dihydro-2H-1,4-benzoxazin-6-yl)carbony)piperidin-4-yl)methoxy)benzoate]",97
9,"COC(=O)c1cc(F)ccc1OCC1CCN(C(=O)c2cc3c(cc2F)OCC(=O)N3)CC1 [Example 85, methyl 5-fluoro-2-((1-((7-fluoro-3-oxo-3,4-dihydro-2H-1,4-benzoxazin-6-yl)carbonyl)piperidin-4-yl)methoxy)benzoate]",102
10,"O=C1COc2cc(Cl)c(C(=O)N3CCC(COc4ccc(F)cc4Cl)CC3)cc2N1 [Example 86, 7-chloro-6-((4-((2-chloro-4-fluorophenoxy)methyl)piperidin-1-yl)carbonyl)-2H-1,4-benzoxazin-3(4H)-one]",98
11,"O=C1COc2cc(Cl)c(C(=O)N3CC(COc4ccc(F)cc4Cl)C3)cc2N1 [Example 87, 7-chloro-6-((3-((2-chloro-4-fluorophenoxy)methyl)azetidin-1-yl)carbonyl)-2H-1,4-benzoxazin-3(4H)-one]",102
12,"Cc1cc2c(cc1C(=O)N1CC(COc3ccc(F)cc3Cl)C1)NC(=O)CO2 [Example 88, 6-((3-((2-chloro-4-fluorophenoxy)methyl)azetidin-1-yl)carbonyl)-7-methyl-2H-1,4-benzoxazin-3 (4H)-one]",96
13,"Cc1cc2c(cc1C(=O)N1CCC(COc3ccc(F)cc3Cl)CC1)NC(=O)CO2 [Example 89, 6-((4-((2-chloro-4-fluorophenoxy)methyl)piperidin-1-yl)carbonyl)-7-methyl-2H-1,4-benzoxazin-3(4H)-one]",90
14,"CC(C)(O)c1ccc(OCC2CCN(C(=O)c3cc4c(cc3F)OCC(=O)N4)CC2)c(Cl)c1 [Example 90, 6-((4-((2-chloro-4-(2-hydroxypropan-2-yl)phenoxy)methyl)piperidin-1-yl)carbonyl)-7-fluoro-2H-1,4-benzoxazin-3(4H)-one]",98
15,"CC(C)(O)c1cc(F)ccc1OCC1CCN(C(=O)c2cc3c(cc2F)OCC(=O)N3)CC1 [Example 91, 7-fluoro-6-((4-((4-fluoro-2-(2-hydroxypropan-2-yl)phenoxy)methyl)piperidin-1-yl)carbonyl)-2H-1,4-benzoxazin-3(4H)-one]",99
16,"N#Cc1ccc(OCC2CN(C(=O)c3cc4c(cc3F)OCC(=O)N4)C2)c(Cl)c1 [Example 92, 3-chloro-4-((1-((7-fluoro-3-oxo-3,4-dihydro-2H-1,4-benzoxazin-6-yl)carbonyl)azetidin-3-yl)methoxy)benzonitrile]",99
17,"O=C1COc2ccc(C(=O)N3CCC(COc4ccccc4F)CC3)cc2N1 [Example 94, 6-((4-((2-fluorophenoxy)methyl)piperidin-1-yl)carbonyl)-2H-1,4-benzoxazin-3(4H)-one]",97
18,"O=C1COc2cc(F)c(C(=O)N3CCC(COC4CCC(F)(F)CC4)CC3)cc2N1 [Example 95, 6-((4-(((4,4-difluorocyclohexyl)oxy)methyl)piperidin-1-yl)carbonyl)-7-fluoro-2H-1,4-benzoxazin-3(4H)-one]",97
19,"O=C1COc2cc(F)c(C(=O)N3CC(F)(COc4ccc(F)cc4Cl)C3)cc2N1 [Example 96, 6-((3-((2-chloro-4-fluorophenoxy)methyl)-3-fluoroazetidin-1-yl)carbonyl)-7-fluoro-2H-1,4-benzoxazin-3(4H)-one]",100
20,"COc1cc2c(cc1C(=O)N1CCC(COc3ccc(F)cc3Cl)CC1)NC(=O)CO2 [Example 97, 6-((4-((2-chloro-4-fluorophenoxy)methyl)piperidin-1-yl)carbonyl)-7-methoxy-2H-1,4-benzoxazin-3(4H)-one]",100
21,"COc1cc2c(cc1C(=O)N1CC(COc3ccc(F)cc3Cl)C1)NC(=O)CO2 [Example 98, 6-((3-((2-chloro-4-fluorophenoxy)methyl)azetidin-1-yl)carbonyl)-7-methoxy-2H-1,4-benzoxazin-3(4H)-one]",99
22,"O=C1COc2cc(F)c(C(=O)N3CCC(COc4ccc(F)cc4Br)CC3)cc2N1 [Example 99, 6-((4-((2-bromo-4-fluorophenoxy)methyl)piperidin-1-yl)carbonyl)-7-fluoro-2H-1,4-benzoxazin-3(4H)-one]",99
23,"O=C1COc2cc(F)c(C(=O)N3CCC(COc4ccc(F)cc4-c4ccccc4)CC3)cc2N1 [Example 100, 7-fluoro-6-((4-(((5-fluorobiphenyl-2-yl)oxy)methyl)piperidin-1-yl)carbonyl)-2H-1,4-benzoxazin-3(4H)-one]",98
24,"O=C(c1cc2[nH]c(=O)oc2cc1F)N1CCC(COc2ccc(F)cc2Cl)CC1 [Example 101, 5-((4-((2-chloro-4-fluorophenoxy)methyl)piperidin-1-yl)carbonyl)-6-fluoro-1,3-benzoxazol-2(3H)-one]",99
25,"O=C1COc2cc(F)c(C(=O)N3CC(COc4ccc5c(c4)CCCC5)C3)cc2N1 [Example 102, 7-fluoro-6-((3-((5,6,7,8-tetrahydronaphthalen-2-yloxy)methyl)azetidin-1-yl)carbonyl)-2H-1,4-benzoxazin-3(4H)-one]",102
26,"CC1(C)Cc2cccc(OCC3CN(C(=O)c4cc5c(cc4F)OCC(=O)N5)C3)c2O1 [Example 103, 6-((3-(((2,2-dimethyl-2,3-dihydro-1-benzofuran-7-yl)oxy)methyl)azetidin-1-yl)carbonyl)-7-fluoro-2H-1,4-benzoxazin-3(4H)-one]",102
27,"O=C1COc2cc(F)c(C(=O)N3CC(COc4ccc5scnc5c4)C3)cc2N1 [Example 104, 6-((3-((1,3-benzothiazol-5-yloxy)methyl)azetidin-1-yl)carbonyl)-7-fluoro-2H-1,4-benzoxazin-3(4H)-one]",100
28,"O=C1COc2cc(F)c(C(=O)N3CC(COc4cccc5scnc45)C3)cc2N1 [Example 105, 6-((3-((1,3-benzothiazol-4-yloxy)methyl)azetidin-1-yl)carbonyl)-7-fluoro-2H-1,4-benzoxazin-3(4H)-one]",97
29,"O=C1COc2cc(F)c(C(=O)N3CC(COc4cccc5ocnc45)C3)cc2N1 [Example 106, 6-((3-((1,3-benzoxazol-4-yloxy)methyl)azetidin-1-yl)carbonyl)-7-fluoro-2H-1,4-benzoxazin-3(4H)-one]",101
